Measured values from US20100029654A1, “CARDIOVASCULAR COMPOSITIONS AND USE OF THE SAME FOR THE TREATMENT OF ALZHEIMER'S DISEASE” (MOUNT SINAI SCHOOL OF MEDICINE, priority 2006, published 2010).
pEC50: −log10 of the molar value. Several values for one entry are separate records, joined by “and”; a condition that tells them apart may be missing. Equal entries are not always repeated. Structures can show the parent of a compound that is named as a salt. Where two headings read alike, the source gives them in different places.

What was measured:
Aβ1-40 = Aβ1-40 content in conditioned medium of primary cortico-hippocampal neuron cultures from Tg2576 mice (ELISA; primary and secondary dose-response screening); format: cell-based, mouse; details: for activity at 100 µM / Ab1-40 (% of ctl): drug 100 μM; for activity at 100 µM: read-out: Ab1-40 (% of ctl); for pEC50: read-out: EC50 (molar) Aβ1-40; for reduced Aβ1-40: <85% of ctl
How it was run: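 Primary cortico-hippocampal neurons from embryonic Tg2576 mice were plated at 1.0×10^5 cells per well on poly-D-lysine-coated 96-well plates in Neurobasal with 2% B27, 0.5 mM L-glutamine and 1% penicillin-streptomycin. Cultures received drug in 1% DMSO, and Aβ1-40 in the conditioned medium was measured by BioSource ELISA 24 hours after treatment, relative to vehicle controls.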

Aβ1-42 [1] = experiment: Aβ1-42 content in conditioned medium of primary cortico-hippocampal neuron cultures from Tg2576 mice (ELISA; primary and secondary dose-response screening); format: cell-based, mouse; details: for activity at 100 µM: Mus musculus, Neuron, 24 h, read-out: Ab1-42 (% of ctl); for activity at 100 µM / Ab1-42 (% of ctl): drug 100 μM; for reducing Aβ1-42: <85% of ctl
How it was run: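 Primary cortico-hippocampal neurons from embryonic Tg2576 mouse brain were seeded on poly-D-lysine-coated 96-well plates at 1.0×10^5 cells per well in serum-free Neurobasal medium with 2% B27, 0.5 mM L-glutamine and 1% penicillin-streptomycin. For primary screening, duplicate wells received 100 μM drug (1% DMSO final). Vehicle-treated cultures served as controls, and Aβ1-42 in conditioned medium was measured by commercial ELISA.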

Aβ1-42 [2] = experiment: as above; format: cell-based, mouse; details: Mus musculus; for pEC50 / activity at 100 µM: 24 h; for pEC50: read-out: EC50 (molar) Aβ1-42; for activity at 100 µM: primary screening, drug 100 μM, Tg2576 neuron cultures, table sorted by Aβ1-42, read-out: Ab1-42 (% of ctl)
[3] = tested on: primary cortico-hippocampal neuron cultures; experiment: MTT in primary screening
[4] = tested on: primary cortico-hippocampal neuron cultures; experiment: lactate dehydrogenase (LDH) activity assay in parallel neuron cultures; details: for LDH at E-5M % of change: drug at E-5M
Experimental: For in vitro treatments drugs available from “The Spectrum Collection” in stocks of 10 mM in DMSO were applied directly to cultures to the desired concentrations (final 1% DMSO); control primary neuron cultures from Tg2576 embryos were treated with vehicle resulting in a final 1% DMSO.
Cell viability was assessed using a commercial available LDH assay kit according to the manufacture's instruction (Promega).

[5] = Mus musculus, Neuron, 24 h, Primary Screening, table sorted by Aβ1-40
[6] = Mus musculus, Neuron, 24 h, primary screening, Tg2576 neuron cultures, table sorted by Aβ1-42
[7] = Mus musculus, Neuron, secondary dose-response screening 0.01-100 μM, 24 hours
[8] = Primary Screening, table sorted by Aβ1-40
[9] = primary screening, Tg2576 neuron cultures, table sorted by Aβ1-42
[10] = Neuron, secondary dose-response screening 0.01-100 μM, 24 hours
[11] = primary screening, table sorted by Aβ1-42
[12] = Mus musculus, 24 h, primary screening, Tg2576 neuron cultures, table sorted by Aβ1-42
[13] = Primary Screening, table sorted by Aβ1-40, Hydrochloride
[14] = primary screening, table sorted by Aβ1-42, Hydrochloride
[15] = Neuron, conditioned medium of primary cortico-hippocampal neuron cultures from Tg2576 embryos, 24 hours after treatment, relative to vehicle (1% DMSO) control

SMILES | pEC50 (Aβ1-40; [7]) | pEC50 (Aβ1-42 [2]; [10]) | MTT (% of ctl) [3, 8] | MTT (% of ctl) [3, 11] | LDH (% of ctl) [4, 8] | LDH at E-5M % of change [4] | LDH (% of ctl) [4, 11] | activity at 100 µM (Aβ1-40; [5]) | activity at 100 µM (Aβ1-40; [6]) | reduced Aβ1-40 (Aβ1-40; primary screening) | activity at 100 µM (Aβ1-42 [1]; [8]) | activity at 100 µM (Aβ1-42 [1]; [9]) | reducing Aβ1-42 (Aβ1-42 [1]; primary screening) | pEC50 (Aβ1-42 [2]; [15]) | also measured
OCCN(CCO)c1nc(N2CCCCC2)c2nc(N(CCO)CCO)nc(N3CCCCC3)c2n1 [Dipyridamole] | 4.78 | 5.91 | 102.7 % of ctl | 102.7 % of ctl | 107.5 % of ctl | 6.4% | 107.5 % of ctl | 72.2% | 72.2% | reduced Aβ1-40 | 62.6% | 62.6% | useful in reducing Aβ1-42 | – | –
CC(C)N(CCC(C(N)=O)(c1ccccc1)c1ccccn1)C(C)C (stereo not shown) [Disopyramide Phosphate] | – | 4.27 | 71.2 % of ctl | 71.2 % of ctl | 125.8 % of ctl | −3.7% | 125.8 % of ctl | 83.5% | 83.5% | reduced Aβ1-40 | 66.3% | 66.3% | useful in reducing Aβ1-42 | – | pEC50 (Aβ1-40; Mus musculus, Neuron, 24 h): 9.11
C=C(CC)C(=O)c1ccc(OCC(=O)O)c(Cl)c1Cl [Ethacrynic Acid] | 4.68 | 4.65 | 109.9 % of ctl | 109.9 % of ctl | 101.5 % of ctl | 10.0% | 101.5 % of ctl | 4.4% | 4.4% | reduced Aβ1-40 | 1.8% | 1.8% | useful in reducing Aβ1-42 | – | –
C[N+](C)(C)CCCCCC[N+](C)(C)C [Hexamethonium Bromide] | – | – | 92.1 % of ctl | 92.1 % of ctl | 99.7 % of ctl | – | 99.7 % of ctl | – | – | reduced Aβ1-40 | – | – | useful in reducing Aβ1-42 | – | activity at 100 µM (Aβ1-40; [12]): 84.8%; Ab1-40 (% of ctl) (Aβ1-40; [8]): 84.8 % of ctl; Ab1-42 (% of ctl) (Aβ1-42 [1]; [8]): 72.6 % of ctl; activity at 100 µM (Aβ1-42 [2]): 72.6%
CO[C@H]1[C@H](O)[C@H](O[C@H]2CC[C@@]3(C)[C@H](CC[C@@H]4[C@@H]3CC[C@]3(C)[C@@H](C5=CC(=O)OC5)CC[C@]43O)C2)O[C@@H](C)[C@@H]1O [Neriifolin] | – | – | 101.2 % of ctl | 101.2 % of ctl | 110.8 % of ctl | – | 110.8 % of ctl | – | – | reduced Aβ1-40 | – | – | – | – | activity at 100 µM (Aβ1-40; [12]): 79.7%; Ab1-40 (% of ctl) (Aβ1-40; [8]): 79.7 % of ctl; Ab1-42 (% of ctl) (Aβ1-42 [1]; [8]): 90.3 % of ctl; activity at 100 µM (Aβ1-42 [2]): 90.3%
COC(=O)C1=C(C)NC(C)=C(C(=O)OC)C1c1ccccc1[N+](=O)[O-] [Nifedipine] | – | 7.13 | 98.7 % of ctl | 98.7 % of ctl | 76.1 % of ctl | 12.0% | 76.1 % of ctl | 73.4% | 73.4% | – | 90.6% | 90.6% | – | 7.13 | –
NCCc1cc(O)c(O)cc1O [Oxidopamine Hydrochloride] | – | – | 121.5 % of ctl | 121.5 % of ctl | 103.6 % of ctl | – | 103.6 % of ctl | – | – | reduced Aβ1-40 | – | – | useful in reducing Aβ1-42 | – | activity at 100 µM (Aβ1-40; [12]): 43.8%; Ab1-40 (% of ctl) (Aβ1-40; [8]): 43.8 % of ctl; Ab1-42 (% of ctl) (Aβ1-42 [1]; [8]): 36.4 % of ctl; activity at 100 µM (Aβ1-42 [2]): 36.4%

Now from value to compound, other results behind:

pEC50 (Aβ1-40; [7]) | pEC50 (Aβ1-42 [2]; [10]) | MTT (% of ctl) [3, 8] | MTT (% of ctl) [3, 11] | LDH (% of ctl) [4, 8] | LDH at E-5M % of change [4] | LDH (% of ctl) [4, 11] | SMILES | activity at 100 µM (Aβ1-40; [5]) | activity at 100 µM (Aβ1-40; [6]) | reduced Aβ1-40 (Aβ1-40; primary screening) | activity at 100 µM (Aβ1-42 [1]; [8]) | activity at 100 µM (Aβ1-42 [1]; [9]) | reducing Aβ1-42 (Aβ1-42 [1]; primary screening) | pEC50 (Aβ1-42 [2]; [15]) | also measured
4.90 | 4.38 | 7.7 % of ctl | 7.7 % of ctl | 1881.4 % of ctl | −3.0% | 1881.4 % of ctl | CC(NCCC(c1ccccc1)c1ccccc1)c1ccccc1 (stereo not shown) [Fendiline Hydrochloride] | 7.9% | 7.9% | reduced Aβ1-40 | 26.2% | 26.2% | useful in reducing Aβ1-42 | – | –
5.03 | 4.98 | 95.7 % of ctl | 95.7 % of ctl | 101.1 % of ctl | −1.2% | 101.1 % of ctl | NNc1nncc2ccccc12 [Hydralazine Hydrochloride] | 66.1% | 66.1% | reduced Aβ1-40 | 63.2% | 63.2% | useful in reducing Aβ1-42 | – | EC50 (Aβ1-40; Mus musculus, Neuron, Table IV, dose-response 0.01-100 μM, read-out: EC50 (M): Ab-lowering activity Abeta1-40): 9.29e-06 M; EC50 (Aβ1-42 [2]; Neuron, Table IV, dose-response 0.01-100 μM, read-out: EC50 (M): Ab-lowering activity): 1.04e-05 M; LDH (at 5F-5 M) ([4]; Table IV): no change
– | 5.09 | – | – | – | 5.0% | – | CC(COc1ccccc1)NC(C)C(O)c1ccc(O)cc1 (stereo not shown) [Isoxsuprine Hydrochloride] | 78.3% | 78.3% | reduced Aβ1-40 | 83.7% | 83.7% | useful in reducing Aβ1-42 | – | EC50 (molar) Aβ1-40 (Aβ1-40; secondary dose-response screening 0.01-100 μM, 24 hours): no fit; MTT (% of ctl) [3, 13]: 99.8 % of ctl and 93.1 % of ctl; MTT (% of ctl) [3, 14]: 99.8 % of ctl and 93.1 % of ctl; LDH (% of ctl) [4, 13]: 106.2 % of ctl and 107.7 % of ctl; LDH (% of ctl) [4, 14]: 106.2 % of ctl and 107.7 % of ctl
8.39 | 6.14 | 93.0 % of ctl | 93.0 % of ctl | 164.0 % of ctl | −5.0% | 164.0 % of ctl | CC(CCc1ccccc1)NCC(O)c1ccc(O)c(C(N)=O)c1 (stereo not shown) [Labetalol Hydrochloride] | 84.9% | 84.9% | reduced Aβ1-40 | 106% | 106% | – | 6.14 | –
– | 4.55 | 115.6 % of ctl | 115.6 % of ctl | 100.4 % of ctl | −4.0% | 100.4 % of ctl | COCCOC(=O)C1=C(C)NC(C)=C(C(=O)OC(C)C)C1c1cccc([N+](=O)[O-])c1 (stereo not shown) [Nimodipine] | 79.1% | 79.1% | – | 90.9% | 90.9% | – | 4.55 | –
3.09 | 5.80 | 100.8 % of ctl | 100.8 % of ctl | 94.3 % of ctl | 5.0% | 94.3 % of ctl | CCOC(=O)C1=C(C)NC(C)=C(C(=O)OC)C1c1cccc([N+](=O)[O-])c1 (stereo not shown) [Nitrendipine] | 33% | 33% | – | 64% | 64% | – | 5.80 | –
